Results as given in PMC10106425 (ACS infectious diseases, 2023).
Like-named read-outs stand apart in the source and are kept apart here.

Legend:
[1] = system: Plasmodium falciparum strain Dd2; assay: SYBR Green I proliferation assay, asynchronous blood stage, Dd2; type: cell-based; settings: for EC50: read-out: Pf Dd2 EC50
HepG2 cells = assay: Cytotoxicity assay; type: cell-based, human; settings: for EC50: read-out: HepG2 EC50
human PLK1 = settings: read-out: PLK1 IC50, from prior publication or from Selleck Chemicals ref 15, 16; cited from earlier work
[2] = system: Plasmodium falciparum strain 3D7; assay: SYBR Green I proliferation assay, asynchronous blood stage, 3D7
PfARK2 [3] = assay: Radioactive kinase assay; type: biochemical, P. falciparum; settings: highest concentration tested 2 μM
P. falciparum Dd2 = assay: Flow-cytometry rate of killing assay; type: cell-based, Plasmodium falciparum; settings: 10 × EC50
PfARK2 [4] = assay: ADP-Glo kinase assay; type: biochemical, P. falciparum; settings: up to 5 μM
PK9 = assay: KinaseSeeker split-luciferase competitive binding assay; design: species or system P. falciparum
Pf NEK3 (PF3D7_1201600) = Pf NEK3 (PF3D7_1201600) (Plasmodium falciparum, UniProt Q8I629); assay: biochemical; type: binding; settings: for remaining activity at 2.5 µM: read-out: % activity remaining at 2.5 μM, NEK3
CDPK5 = CDPK5 (Plasmodium falciparum, UniProt A0A5K1K8H0); assay: KinaseSeeker split-luciferase competitive binding assay; design: species or system P. falciparum; settings: read-out: % activity remaining at 2.5 μM, CDPK5
Sequence of CDPK5 (A0A5K1K8H0 whole entry): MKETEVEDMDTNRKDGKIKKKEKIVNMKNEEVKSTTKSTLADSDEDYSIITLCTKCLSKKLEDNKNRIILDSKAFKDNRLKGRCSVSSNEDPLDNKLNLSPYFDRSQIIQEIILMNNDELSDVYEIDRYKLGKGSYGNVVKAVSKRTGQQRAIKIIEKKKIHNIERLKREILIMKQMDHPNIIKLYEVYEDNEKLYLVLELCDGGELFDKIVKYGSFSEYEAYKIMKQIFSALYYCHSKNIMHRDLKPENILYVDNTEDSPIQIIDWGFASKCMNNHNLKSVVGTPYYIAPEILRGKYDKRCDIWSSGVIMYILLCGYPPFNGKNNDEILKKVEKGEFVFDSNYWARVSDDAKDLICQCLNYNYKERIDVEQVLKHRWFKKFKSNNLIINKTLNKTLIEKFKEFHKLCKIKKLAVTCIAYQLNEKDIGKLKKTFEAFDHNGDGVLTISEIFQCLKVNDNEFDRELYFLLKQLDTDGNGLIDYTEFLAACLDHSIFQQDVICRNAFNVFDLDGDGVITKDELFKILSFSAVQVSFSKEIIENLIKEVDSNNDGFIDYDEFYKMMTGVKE

PK5 = PK5 (Plasmodium falciparum, UniProt P61075); assay: as above; design: species or system P. falciparum; settings: read-out: % activity remaining at 2.5 μM, PK5
Sequence of PK5 (P61075 whole entry): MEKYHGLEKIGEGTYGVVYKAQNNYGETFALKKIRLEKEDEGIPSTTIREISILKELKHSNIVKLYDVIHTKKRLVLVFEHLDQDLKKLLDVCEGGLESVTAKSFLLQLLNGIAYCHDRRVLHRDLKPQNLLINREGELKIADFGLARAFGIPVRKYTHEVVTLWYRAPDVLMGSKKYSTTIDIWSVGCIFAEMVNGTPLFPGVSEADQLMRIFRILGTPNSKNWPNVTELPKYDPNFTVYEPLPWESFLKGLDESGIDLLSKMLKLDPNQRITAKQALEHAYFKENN

PfARK1 = assay: as above; design: species or system P. falciparum
Pf NEK1 = assay: as above; design: species or system P. falciparum
PKB = PKB (Plasmodium falciparum, UniProt Q8I4W3); assay: as above; design: species or system P. falciparum; settings: read-out: % activity remaining at 2.5 μM, PKB
PK6 = PK6 (Plasmodium falciparum, UniProt O77239); assay: as above; design: species or system P. falciparum; settings: read-out: % activity remaining at 2.5 μM, PK6
GSK3 = GSK3 (Plasmodium falciparum, UniProt O77344); assay: as above; design: species or system P. falciparum; settings: read-out: % activity remaining at 2.5 μM, GSK3
CDPK2 = CDPK2 (Plasmodium falciparum, UniProt Q8ICR0); assay: as above; design: species or system P. falciparum; settings: read-out: % activity remaining at 2.5 μM, CDPK2
Sequence of CDPK2 (Q8ICR0 whole entry): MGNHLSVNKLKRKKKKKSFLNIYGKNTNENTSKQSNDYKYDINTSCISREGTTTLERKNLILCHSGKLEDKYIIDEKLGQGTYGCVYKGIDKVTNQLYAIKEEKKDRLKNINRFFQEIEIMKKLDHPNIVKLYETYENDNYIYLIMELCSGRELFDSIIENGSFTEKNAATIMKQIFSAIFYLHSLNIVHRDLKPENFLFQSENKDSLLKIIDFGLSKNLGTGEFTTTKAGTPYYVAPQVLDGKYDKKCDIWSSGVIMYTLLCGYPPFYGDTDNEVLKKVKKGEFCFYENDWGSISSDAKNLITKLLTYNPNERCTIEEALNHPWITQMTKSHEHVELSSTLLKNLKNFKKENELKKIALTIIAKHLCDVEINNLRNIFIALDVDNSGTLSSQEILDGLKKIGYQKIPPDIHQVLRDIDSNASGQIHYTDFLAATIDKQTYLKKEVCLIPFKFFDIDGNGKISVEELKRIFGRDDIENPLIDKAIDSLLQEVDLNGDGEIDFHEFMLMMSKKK

[5] = system: synchronized Dd2 parasites; assay: Stage-specific assay; type: cell-based, Plasmodium falciparum; settings: 5 × EC50 applied later in the ring stage (18 HPI)
PfARK3 = assay: KinaseSeeker split-luciferase competitive binding assay; design: species or system P. falciparum
[6] = Plasmodium falciparum, DD2, 72 h
[7] = 3D7, 72 h, read-out: Pf 3D7 EC50
[8] = 72 h, average ± SEM, at least three biological replicates
[9] = 48 h, average ± SEM, at least three biological replicates

Row | Molecule | EC50 [1, 6] [nM] | Selectivity Index (SI) = HepG2 EC50/Dd2 EC50 (HepG2 cells) | EC50 (HepG2 cells; Homo sapiens, HepG2, 48 h) [nM] | IC50 (human PLK1) [nM] | EC50 [2, 7] [nM] | compound incubation required for a full killing effect (P. falciparum Dd2) [h] | EC50 [1, 8] [nM] | EC50 (HepG2 cells; [9]) [nM] | other results
1 | COc1cc(OC)c(/C=C/S(=O)(=O)Cc2ccc(OC)c(NCC(=O)O)c2)c(OC)c1 [ON-01910 (16), ON-01910] | > 5000 | […] | 11900 | […] | – | – | – | – | –
2 | CC[C@@H]1C(=O)N(C)c2cnc(Nc3ccc(C(=O)NC4CCN(C)CC4)cc3OC)nc2N1C1CCCC1 [BI-2536 (1), BI-2536] | 178 ± 12 | – | 3730 ± 520 | – | 135 ± 35 | 24 to 48 | – | – | EC50 ([2]; 3D7, read-out: EC50, 3D7 clone A10): 288 nM; inhibitory effect in PfARK2 (PfARK2 [3]): neither compound displayed inhibitory effects; activity in PfARK2 (PfARK2 [4]): lack of activity
3 | COc1cc2ncn(-c3cc(OCc4ccccc4C(F)(F)F)c(C(N)=O)s3)c2cc1OC [GW843682 (17), GW843682] | – | – | – | 2.2 | – | – | > 5000 | > 25000 | –
4 | Cc1ncc(CCCN(C)C)cc1Nc1ncc2c(n1)-c1ccc(C(F)(F)F)cc1NC(=S)C2 [MLN0905 (13), MLN0905] | – | 2.0 | – | 2 | – | – | 1820 ± 260 | 3940 ± 110 | –
5 | CN1CCN(c2ccc(OC(F)(F)F)c(Nc3ncc4c(n3)-c3c(c(C(N)=O)nn3CCO)CC4)c2)CC1 [NMS-P937 (15), NMS-P937] | – | […] | – | […] | – | – | > 5000 | 6010 ± 79 | –
6 | CC[C@@H]1C(=O)N(C)c2cnc(Nc3ccc(C(=O)N[C@H]4CC[C@H](N5CCN(CC6CC6)CC5)CC4)cc3OC)nc2N1C(C)C [BI-6727 (11), BI-6727] | 230 ± 14 | 8.0 | 1930 ± 460 | 0.87 | 284 ± 52 | 24 to 48 | – | – | % activity remaining at 2.5 μM, PK9 (PK9): 100.0%; IC50 (Pf NEK3 (PF3D7_1201600)): 130 nM; remaining activity at 2.5 µM (Pf NEK3 (PF3D7_1201600)): 11.1%; remaining activity at 2.5 µM (CDPK5): 100%; Resistance Index (RI) = Dd2 EC50/3D7 EC50 [1]: 0.81; remaining activity at 2.5 µM (PK5): 100%; % activity remaining at 2.5 μM, ARK1 (PfARK1): 100.0%; % activity remaining at 2.5 μM, NEK1 (Pf NEK1): 93.8%; remaining activity at 2.5 µM (PKB): 49.3%; remaining activity at 2.5 µM (PK6): 67.3%; remaining activity at 2.5 µM (GSK3): 100%; remaining activity at 2.5 µM (CDPK2): 100%; DNA replication (YOYO-1 signal) [5]: delayed increase in the YOYO-1 signal at 54 h; % activity remaining at 2.5 μM, ARK3 (PfARK3): 83.6%
7 | SBE 13 [SBE 13 (14)] | – | >7.0 | – | 0.2 | – | – | 3570 ± 130 | > 25000 | –
8 | Nc1ccc(-c2ccc3ncc4ccc(=O)n(-c5cccc(C(F)(F)F)c5)c4c3c2)cn1 [torin2] | – | – | – | – | – | – | 5.3 ± 0.3 | – | –
9 | C[C@@H](Oc1cc(-n2cnc3ccc(CN4CCN(C)CC4)cc32)sc1C(N)=O)c1ccccc1C(F)(F)F [GSK461364 (12), GSK461364] | 533 ± 78 | – | 1910 ± 210 | 2.2 | 1410 ± 77 | 24 to 48 | – | – | % activity remaining at 2.5 μM, PK9 (PK9): 100.0%; inhibitory effect in PfARK2 (PfARK2 [3]): neither compound displayed inhibitory effects; IC50 (Pf NEK3 (PF3D7_1201600)): 19 nM; remaining activity at 2.5 µM (Pf NEK3 (PF3D7_1201600)): 9.7%; remaining activity at 2.5 µM (CDPK5): 100%; remaining activity at 2.5 µM (PK5): 100%; % activity remaining at 2.5 μM, ARK1 (PfARK1): 99.5%; % activity remaining at 2.5 μM, NEK1 (Pf NEK1): 100.0%; remaining activity at 2.5 µM (PKB): 100%; remaining activity at 2.5 µM (PK6): 100%; remaining activity at 2.5 µM (GSK3): 100%; remaining activity at 2.5 µM (CDPK2): 100%; % activity remaining at 2.5 μM, ARK3 (PfARK3): 96.2%
